Reference: US9718813B2, “Imidazolin-5-one derivative useful as FASN inhibitors for the treatment of cancer” (Janssen Pharmaceutica, NV, priority 2013, dated 2017)

biological target: hFASN enzyme (full length) (Homo sapiens (Human), UniProt P49327); test: Fatty Acid Synthase (FASN) Inhibition Scintillation Proximity Assay; assay type: biochemical; settings: 3H-acetyl-CoA and malonyl-CoA substrates, SPA, mean if tested more than once
Description: In this assay, inhibition of FASN activity is measured using ^3H-acetyl-CoA and malonyl-CoA as substrates. ^3H-Acetyl CoA is converted to ^3H-palmitate through a series of reactions by the FASN protein, which contains 7 functional domains and carries out 7 enzymatic reactions to ultimately produce ^3H-palmitate. The assay principle is based upon the fact that ^3H-acetyl-CoA is hydrophilic and the end product, ^3H-palmitate is hydrophobic.
10 μL assay buffer (100 mM KH2PO4 pH 7.5, 1 mM DTT) (20 μL in blanks) was added to a 384-well white Opti Plate plate (Perkin Elmer). 0.9 μL test compound (at concentrations of 30 μM, 10 μM, 3 μM, 1 μM, 0.30 μM, 0.10 μM, 0.03 μM and 0.01 μM)/DMSO and 10 μL hFASN enzyme (full length, 300 ng, purified in house) or 10 μL assay buffer was added to the wells. […] The reaction was stopped by adding 20 μL Streptavidin coupled imaging beads (25 mg/ml). After incubation for 30 minutes at room temperature in the dark, the 384 well plate was centrifuged at 1500 rpm for 3 minutes and was measured after at least 24 hrs by the LEADseeker™, measuring emission using a 610±20 nm pass filter.
Raw data generated by the instrument were normalized to % Controlmin values, which were calculated as: % Controlmin=100*(x−mLC)/(mHC−mLC)
where mLC and mHC were the means of the low control wells and high control wells on the plate, after manual exclusion of outliers. A plot of Controlmin versus test compound concentration was fitted to a 4-parameter logistic curve using a non-linear least squares regression method.

Sequence of hFASN enzyme (full length) (P49327 whole entry, the tested form may be a part): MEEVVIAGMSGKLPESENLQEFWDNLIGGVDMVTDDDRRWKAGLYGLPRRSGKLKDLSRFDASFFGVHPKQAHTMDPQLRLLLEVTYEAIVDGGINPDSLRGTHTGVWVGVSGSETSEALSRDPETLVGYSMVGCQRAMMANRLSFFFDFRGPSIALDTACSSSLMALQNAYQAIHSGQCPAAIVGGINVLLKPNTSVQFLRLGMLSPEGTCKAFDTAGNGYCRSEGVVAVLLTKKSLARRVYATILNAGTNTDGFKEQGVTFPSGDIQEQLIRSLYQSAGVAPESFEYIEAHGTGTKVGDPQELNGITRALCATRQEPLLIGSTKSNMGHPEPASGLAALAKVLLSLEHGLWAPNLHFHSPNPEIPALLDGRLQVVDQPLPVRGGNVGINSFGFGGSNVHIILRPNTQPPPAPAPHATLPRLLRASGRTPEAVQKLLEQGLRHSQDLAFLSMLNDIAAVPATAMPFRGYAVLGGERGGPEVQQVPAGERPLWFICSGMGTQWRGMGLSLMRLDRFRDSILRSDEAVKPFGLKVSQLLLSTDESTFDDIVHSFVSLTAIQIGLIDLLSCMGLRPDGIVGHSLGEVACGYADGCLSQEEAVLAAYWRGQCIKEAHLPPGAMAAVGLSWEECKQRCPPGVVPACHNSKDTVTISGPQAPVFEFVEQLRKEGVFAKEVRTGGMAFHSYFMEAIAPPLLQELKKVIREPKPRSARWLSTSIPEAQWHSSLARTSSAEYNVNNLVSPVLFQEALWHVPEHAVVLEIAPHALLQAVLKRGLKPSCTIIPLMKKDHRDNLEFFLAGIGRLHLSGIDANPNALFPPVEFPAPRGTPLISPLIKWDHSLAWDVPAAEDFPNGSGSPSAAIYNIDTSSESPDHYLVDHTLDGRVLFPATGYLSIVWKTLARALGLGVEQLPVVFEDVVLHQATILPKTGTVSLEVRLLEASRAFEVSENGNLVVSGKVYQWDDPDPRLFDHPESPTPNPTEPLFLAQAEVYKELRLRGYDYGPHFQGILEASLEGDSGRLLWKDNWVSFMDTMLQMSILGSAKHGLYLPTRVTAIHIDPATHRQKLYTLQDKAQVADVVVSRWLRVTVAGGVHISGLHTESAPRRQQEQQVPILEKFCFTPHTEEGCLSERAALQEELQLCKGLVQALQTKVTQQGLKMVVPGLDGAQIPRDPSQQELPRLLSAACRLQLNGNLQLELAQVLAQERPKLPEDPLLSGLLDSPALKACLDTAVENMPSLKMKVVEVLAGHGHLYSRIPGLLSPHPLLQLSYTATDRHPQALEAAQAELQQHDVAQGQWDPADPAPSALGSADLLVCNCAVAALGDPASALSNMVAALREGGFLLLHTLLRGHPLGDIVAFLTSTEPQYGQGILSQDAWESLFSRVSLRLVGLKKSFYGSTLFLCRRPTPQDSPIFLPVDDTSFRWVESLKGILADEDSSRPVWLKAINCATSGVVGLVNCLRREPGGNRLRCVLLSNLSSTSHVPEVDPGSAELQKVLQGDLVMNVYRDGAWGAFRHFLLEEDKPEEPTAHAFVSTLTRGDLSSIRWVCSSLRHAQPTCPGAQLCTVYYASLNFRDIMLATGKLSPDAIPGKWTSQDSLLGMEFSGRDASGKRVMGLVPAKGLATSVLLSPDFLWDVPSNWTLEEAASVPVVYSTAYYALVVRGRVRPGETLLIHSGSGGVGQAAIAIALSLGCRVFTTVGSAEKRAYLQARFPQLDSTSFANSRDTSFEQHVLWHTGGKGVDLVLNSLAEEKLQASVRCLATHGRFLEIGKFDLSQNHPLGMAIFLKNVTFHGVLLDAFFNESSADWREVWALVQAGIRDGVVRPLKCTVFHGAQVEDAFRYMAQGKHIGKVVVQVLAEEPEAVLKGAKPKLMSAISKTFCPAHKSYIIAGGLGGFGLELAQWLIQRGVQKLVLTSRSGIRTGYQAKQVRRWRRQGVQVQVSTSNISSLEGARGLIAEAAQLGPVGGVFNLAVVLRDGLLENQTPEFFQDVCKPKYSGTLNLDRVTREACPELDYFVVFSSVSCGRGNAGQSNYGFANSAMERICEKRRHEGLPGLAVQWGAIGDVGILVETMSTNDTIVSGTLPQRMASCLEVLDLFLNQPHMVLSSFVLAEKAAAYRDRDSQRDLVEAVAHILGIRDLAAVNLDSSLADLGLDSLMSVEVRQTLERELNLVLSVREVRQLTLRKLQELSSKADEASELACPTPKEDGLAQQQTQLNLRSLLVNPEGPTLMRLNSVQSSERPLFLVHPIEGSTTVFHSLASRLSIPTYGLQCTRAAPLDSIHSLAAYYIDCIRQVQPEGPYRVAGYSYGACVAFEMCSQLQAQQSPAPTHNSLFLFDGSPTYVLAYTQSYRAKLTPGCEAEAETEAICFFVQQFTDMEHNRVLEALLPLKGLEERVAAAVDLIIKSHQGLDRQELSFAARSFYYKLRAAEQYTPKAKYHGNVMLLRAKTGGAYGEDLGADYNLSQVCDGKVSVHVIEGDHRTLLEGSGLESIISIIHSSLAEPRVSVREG

Row | SMILES | Human FASN pIC50
1 | Cc1cc(-c2ccc3c(c2)ncn3C)ccc1C1=NC(C)(C)C(=O)N1CC1CN(C(=O)C2(O)CC2)C1 [Compound 91, 1-((1-(1-hydroxycyclopropanecarbonyl)azetidin-3-yl)methyl)-4,4-dimethyl-2-(2-methyl-4-(1-methyl-1H-benzo[d]imidazol-5-yl)phenyl)-1H-imidazol-5(4H)-one] | 6.37
2 | CC1(C)N=C(c2ccc(-c3ccc4cc(F)ccc4c3)cc2F)N(C[C@@H]2CCN(C(=O)C3(O)CC3)C2)C1=O [Compound 88, (R)-2-(2-fluoro-4-(6-fluoronaphthalen-2-yl)phenyl)-1-((1-(1-hydroxycyclopropanecarbonyl)pyrrolidin-3-yl)methyl)-4,4-dimethyl-1H-imidazol-5(4H)-one] | 7.69
3 | CC1(C)N=C(c2ccc(-c3nc4ccccc4o3)cc2)N(CC2CN(C(=O)C3CC3)C2)C1=O [Compound 12, 2-(4-(benzo[d]oxazol-2-yl)phenyl)-1-((1-(cyclopropanecarbonyl)azetidin-3-yl)methyl)-4,4-dimethyl-1H-imidazol-5(4H)-one] | ~5.37
4 | CC1(C)N=C(c2ccc(-c3cccc4ncccc34)cc2)N(CC2CN(C(=O)C3CC3)C2)C1=O [Compound 18, 1-((1-(cyclopropanecarbonyl)azetidin-3-yl)methyl)-4,4-dimethyl-2-(4-(quinolin-5-yl)phenyl)-1H-imidazol-5(4H)-one] | ~5.25
5 | CC1(C)N=C(c2ccc(-c3ccc4ncccc4c3)cc2F)N(C[C@@H]2CCN(C(=O)C3CC3)C2)C1=O [Compound 37, (R)-1-((1-(cyclopropanecarbonyl)pyrrolidin-3-yl)methyl)-2-(2-fluoro-4-(quinolin-6-yl)phenyl)-4,4-dimethyl-1H-imidazol-5(4H)-one] | 5.86
6 | CC1(C)N=C(c2ccc(-c3n[nH]c4ccccc34)cc2)N(C[C@@H]2CCN(C(=O)C3CC3)C2)C1=O [Compound 35, (R)-2-(4-(1H-indazol-3-yl)phenyl)-1-((1-(cyclopropanecarbonyl)pyrrolidin-3-yl)methyl)-4,4-dimethyl-1H-imidazol-5(4H)-one] | ~5.19
7 | Cn1cnc2cc(-c3ccc(C4=NC(C)(C)C(=O)N4C[C@@H]4CCN(C(=O)C5(C)CC5)C4)c(F)c3)ccc21 [Compound 90, (R)-2-(2-fluoro-4-(1-methyl-1H-benzo[d]imidazol-5-yl)phenyl)-4,4-dimethyl-1-((1-(1-methylcyclopropanecarbonyl)pyrrolidin-3-yl)methyl)-1H-imidazol-5(4H)-one] | 7.10
8 | Cn1cnc2cc(-c3ccc(C4=NC(C)(C)C(=O)N4CC4CN(C(=O)C5(O)CC5)C4)c(F)c3)ccc21 [Compound 94, 2-(2-fluoro-4-(1-methyl-1H-benzo[d]imidazol-5-yl)phenyl)-1-((1-(1-hydroxycyclopropanecarbonyl)azetidin-3-yl)methyl)-4,4-dimethyl-1H-imidazol-5(4H)-one] | 6.49
9 | Cn1cnc2cc(-c3ccc(C4=NC(C)(C)C(=O)N4C[C@@H]4CCN(C(=O)C5(O)CC5)C4)c(F)c3)ccc21 [Compound 89, (R)-2-(2-fluoro-4-(1-methyl-1H-benzo[d]imidazol-5-yl)phenyl)-1-((1-(1-hydroxycyclopropanecarbonyl)pyrrolidin-3-yl)methyl)-4,4-dimethyl-1H-imidazol-5(4H)-one] | 7.22
10 | Cc1cc(-c2ccc3cc(C#N)ccc3c2)ccc1C1=NC(C)(C)C(=O)N1CC1CN(C(=O)C2CC2)C1 [Compound 96, 6-(4-(1-((1-(cyclopropanecarbonyl)azetidin-3-yl)methyl)-4,4-dimethyl-5-oxo-4,5-dihydro-1H-imidazol-2-yl)-3-methylphenyl)-2-naphthonitrile] | 7.39
11 | CC1(C)N=C(c2ccc(-c3ccc4ncccc4c3)cc2F)N(CC2CN(C(=O)C3CC3)C2)C1=O [Compound 38, 1-((1-(cyclopropanecarbonyl)azetidin-3-yl)methyl)-2-(2-fluoro-4-(quinolin-6-yl)phenyl)-4,4-dimethyl-1H-imidazol-5(4H)-one] | 5.05
12 | Cn1cc(-c2ccc(-c3ccc(C4=NC(C)(C)C(=O)N4C[C@@H]4CCN(C(=O)C5(O)CC5)C4)c(F)c3)cc2)cn1 [Compound 95, (R)-2-(3-fluoro-4′-(1-methyl-1H-pyrazol-4-yl)-[1,1′-biphenyl]-4-yl)-1-((1-(1-hydroxycyclopropanecarbonyl)pyrrolidin-3-yl)methyl)-4,4-dimethyl-1H-imidazol-5(4H)-one] | 7.52
13 | CC1(C)N=C(c2ccc(-c3cnc4ccccc4c3)cc2)N(CC2CN(C(=O)C3CC3)C2)C1=O [Compound 19, 1-((1-(cyclopropanecarbonyl)azetidin-3-yl)methyl)-4,4-dimethyl-2-(4-(quinolin-3-yl)phenyl)-1H-imidazol-5(4H)-one] | 5.38

Second part, the compound after the results:

Row | Human FASN pIC50 | SMILES
14 | 5.43 | CC1(C)N=C(c2ccc(-c3ccc4cncnc4c3)cc2)N(CC2CN(C(=O)C3CC3)C2)C1=O [Compound 36, 1-((1-(cyclopropanecarbonyl)azetidin-3-yl)methyl)-4,4-dimethyl-2-(4-(quinazolin-7-yl)phenyl)-1H-imidazol-5(4H)-one]
15 | ~5.79 | CC1(C)N=C(c2ccc(-c3c[nH]c4ccccc34)cc2)N(CC2CN(C(=O)C3CC3)C2)C1=O [Compound 59, 2-(4-(1H-indol-3-yl)phenyl)-1-((1-(cyclopropanecarbonyl)azetidin-3-yl)methyl)-4,4-dimethyl-1H-imidazol-5(4H)-one]
16 | 7.26 | CC1(C(=O)N2CC[C@@H](CN3C(=O)C(C)(C)N=C3c3ccc(-c4ccc5cc(F)ccc5c4)cc3F)C2)CC1 [Compound 75, (R)-2-(2-fluoro-4-(6-fluoronaphthalen-2-yl)phenyl)-4,4-dimethyl-1-((1-(1-methylcyclopropanecarbonyl)pyrrolidin-3-yl)methyl)-1H-imidazol-5(4H)-one]
17 | 7.04 | Cc1cc(-c2ccc3c(c2)ncn3C)ccc1C1=NC(C)(C)C(=O)N1C[C@@H]1CCN(C(=O)C2(O)CC2)C1 [Compound 92, (R)-1-((1-(1-hydroxycyclopropanecarbonyl)pyrrolidin-3-yl)methyl)-4,4-dimethyl-2-(2-methyl-4-(1-methyl-1H-benzo[d]imidazol-5-yl)phenyl)-1H-imidazol-5(4H)-one]
18 | 7.00 | Cn1cnc2cc(-c3ccc(C4=NC(C)(C)C(=O)N4CC4CN(C(=O)C5(C)CC5)C4)c(F)c3)ccc21 [Compound 93, 2-(2-fluoro-4-(1-methyl-1H-benzo[d]imidazol-5-yl)phenyl)-4,4-dimethyl-1-((1-(1-methylcyclopropanecarbonyl)azetidin-3-yl)methyl)-1H-imidazol-5(4H)-one]
19 | 5.87 | CC1(C)N=C(c2ccc(-c3cccc4cnccc34)cc2F)N(CC2CN(C(=O)C3CC3)C2)C1=O [Compound 21, 1-((1-(cyclopropanecarbonyl)azetidin-3-yl)methyl)-2-(2-fluoro-4-(isoquinolin-5-yl)phenyl)-4,4-dimethyl-1H-imidazol-5(4H)-one]
20 | 5.67 | CC1(C)N=C(c2ccc(-c3ccc4ncccc4c3)cc2)N(C[C@@H]2CCN(C(=O)C3CC3)C2)C1=O [Compound 64, (R)-1-((1-(cyclopropanecarbonyl)pyrrolidin-3-yl)methyl)-4,4-dimethyl-2-(4-(quinolin-6-yl)phenyl)-1H-imidazol-5(4H)-one]
